Legend:
Assay type in all cases: cell-based
[1] = target: T1, human prostanoid TP receptor (Homo sapiens, UniProt P21731); test: FLIPR Ca2+ signaling antagonist assay, TP receptor stable cell line; conditions: HEK-293 EBNA stable cell line; standard agonist U-46619; NA = inactive (no antagonism or Kb 10,000 nM); PAg, Ag not defined
T1 construct: expressed in transfected cells
T1 sequence (P21731 1-343): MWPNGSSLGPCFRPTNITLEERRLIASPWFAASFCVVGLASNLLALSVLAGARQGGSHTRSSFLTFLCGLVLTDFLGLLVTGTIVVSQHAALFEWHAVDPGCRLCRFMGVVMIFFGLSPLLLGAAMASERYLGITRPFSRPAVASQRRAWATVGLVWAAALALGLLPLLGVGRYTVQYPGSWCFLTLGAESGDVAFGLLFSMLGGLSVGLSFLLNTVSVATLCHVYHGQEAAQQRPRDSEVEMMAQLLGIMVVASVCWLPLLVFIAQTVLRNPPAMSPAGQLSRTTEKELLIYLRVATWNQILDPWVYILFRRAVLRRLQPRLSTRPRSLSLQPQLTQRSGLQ
Method: (§1) The above compounds were tested for PG antagonist activity as follows using human recombinant prostanoid receptor (DP1, EP1-4, FP, IP and TP) stable cell lines:
(§2) In order to measure the response of Gs and Gi coupled prostanoid receptors as a Ca^2+ signal, chimeric G protein cDNAs were used. Stable cell lines over-expressing human prostanoid DP1, EP1-4, FP, IP, and TP receptors were established as follows:
(§3) Briefly, human prostanoid DP1, EP2, and EP4 receptor cDNAs were co-transfected with chimeric Gqs cDNA containing a haemagglutanin (HA) epitope; human prostanoid EP3 receptors were co-transfected with chimeric Gqi-HA; human EP1, FP, IP, and TP receptor cDNAs were expressed with no exogenous G-proteins. Gqs and Gqi chimeric cDNAs (Molecular Devices, Sunnyvale, Calif., U.S.A.), as well as cDNAs of prostanoid receptors, were cloned into a pCEP4 vector with a hygromycin B selection marker. Transfection into HEK-293 EBNA (Epstein-Barr virus nuclear antigen) cells was achieved by the FuGENE 6 transfection Reagent (Roche Applied Science, Indianapolis, Ind., USA). Stable transfectants were selected according to hygromycin resistance. Because Gqs and Gqi contained an HA epitope, G-protein expression was detected by Western blotting analysis using anti-mouse HA monoclonal antibody and horseradish peroxidase (HRP)-conjugated secondary antibody, while functional expression of prostanoid receptors was detected by FLIPR screening (Matias et al., 2004). These stable cell lines were validated using previously published antagonists at 10 μM against serial dilutions of standard agonists by FLIPR functional assays for Ca^2+ Signaling (as described below).
(§4) Ca^2+ signaling studies were performed using a FLIPR TETRA system (Molecular Devices, Sunnyvale, Calif., USA) in the 384-format. This is a high-throughput instrument for cell-based assays to monitor Ca^2+ signaling associated with GPCRs and ion channels. Cells were seeded at a density of 5×10^4 cells/well in BioCoat poly-D-lysine coated, black wall, clear bottom 384-well plates (BD Biosciences, Franklin lakes, NJ, USA) and allowed to attach overnight in an incubator at 37° C. The cells were then washed twice with HBSS-HEPES buffer (Hanks' balanced salt solution without bicarbonate and phenol red, 20 mM HEPES, pH 7.4) using an ELx405 Select CW Microplate Washer (BioTek, Winooski, Vt., USA). After 60 min of dye-loading in the dark using the Ca^2+-sensitive dye Fluo-4AM (Invitrogen, Carlsbad, Calif., USA), at a final concentration of 2×10^−6M, the plates were washed 4 times with HBSS-HEPES buffer to remove excess dye and leaving 50 μl of buffer in each well. The plates were then placed in the FLIPR TETRA instrument and allowed to equilibrate at 37° C. AGN-211377 was added in a 25 μl volume to each well to give final concentrations of 0.1 μM, 0.3 μM, 1 μM, 3 μM, 10 μM, and 30 μM; or 0.067 μM, 0.1 μM, 0.2 μM, 0.3 μM, 0.67 μM, and 1 μM for cells over-expressing TP receptors. After 4.5 minutes, a 7-point serial dilution of the standard agonist for the corresponding receptor, in a 25 μl volume was injected at the final concentrations from 10^−11M to 10^−5M in 10-fold serial dilution increments for cells expressing human recombinant DP1, EP1, EP2, EP3, EP4, FP, and IP receptors. The dose range for the standard agonist for human recombinant TP receptors was from 10^−12 M to 10^−6 M. HBSS-HEPES buffer was used as the negative control for the standard agonists. Cells were excited with LED (light emitting diode) excitation at 470-495 nm and emission was measured through an emission filter at 515-575 nm. Assay plates were read for 3.5 minutes using the FLIPR^TETRA. The peak increase in fluorescence intensity was recorded for each well. On each plate, negative controls, dose response of positive controls, and co-treatments of antagonist-agonist for each dose were in triplicates.
(§5) Standard agonists were as follows: DP=BW 245C, EP1-EP4=PGE2, FP=17-phenyl-PGF2α, IP=Cicaprost, and TP=U-46619. […]

[2] = target: T2, human prostanoid FP receptor (Homo sapiens, UniProt P43088); test: FLIPR Ca2+ signaling antagonist assay, FP receptor stable cell line; conditions: HEK-293 EBNA stable cell line; standard agonist 17-phenyl-PGF2α; NA = inactive (no antagonism or Kb 10,000 nM); PAg, Ag not defined
T2 construct: expressed in transfected cells
Method: as §1, §2, §3, §4, §5

[3] = target: T3, human prostanoid DP1 receptor (Homo sapiens, UniProt Q13258); test: FLIPR Ca2+ signaling antagonist assay, DP1 receptor stable cell line; conditions: HEK-293 EBNA stable cell line; standard agonist BW 245C; NA = inactive (no antagonism or Kb 10,000 nM); PAg, Ag not defined
T3 construct: expressed in transfected cells
T3 sequence (Q13258 1-359): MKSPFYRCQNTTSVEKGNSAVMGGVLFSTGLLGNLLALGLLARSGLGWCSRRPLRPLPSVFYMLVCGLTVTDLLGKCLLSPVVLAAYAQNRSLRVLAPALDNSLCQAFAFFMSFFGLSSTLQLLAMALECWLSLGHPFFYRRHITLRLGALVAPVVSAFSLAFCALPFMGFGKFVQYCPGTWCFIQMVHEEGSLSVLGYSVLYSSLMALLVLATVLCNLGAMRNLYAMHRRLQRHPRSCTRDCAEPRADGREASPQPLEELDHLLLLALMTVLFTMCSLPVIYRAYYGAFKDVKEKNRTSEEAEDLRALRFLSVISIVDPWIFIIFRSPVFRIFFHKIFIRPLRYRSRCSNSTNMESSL
Method: as §1, §2, §3, §4, §5

[4] = target: T4, human prostanoid EP1 receptor (Homo sapiens, UniProt P34995); test: FLIPR Ca2+ signaling antagonist assay, EP1 receptor stable cell line; conditions: HEK-293 EBNA stable cell line; standard agonist PGE2; NA = inactive (no antagonism or Kb 10,000 nM); PAg, Ag not defined
T4 construct: expressed in transfected cells
T4 sequence (P34995 1-402): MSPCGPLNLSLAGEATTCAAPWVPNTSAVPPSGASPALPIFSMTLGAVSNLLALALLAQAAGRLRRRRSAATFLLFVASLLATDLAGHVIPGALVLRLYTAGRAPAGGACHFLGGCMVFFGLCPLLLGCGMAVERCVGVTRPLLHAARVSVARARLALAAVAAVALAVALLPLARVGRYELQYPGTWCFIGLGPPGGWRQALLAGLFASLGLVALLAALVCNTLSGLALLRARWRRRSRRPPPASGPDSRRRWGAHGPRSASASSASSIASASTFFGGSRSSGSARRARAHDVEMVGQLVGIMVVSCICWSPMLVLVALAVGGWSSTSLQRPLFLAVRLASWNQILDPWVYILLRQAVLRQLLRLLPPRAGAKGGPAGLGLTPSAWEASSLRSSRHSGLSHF
Method: as §1, §2, §3, §4, §5

[5] = target: T5, human prostanoid EP2 receptor (Homo sapiens, UniProt P43116); test: FLIPR Ca2+ signaling antagonist assay, EP2 receptor stable cell line; conditions: HEK-293 EBNA stable cell line; standard agonist PGE2; NA = inactive (no antagonism or Kb 10,000 nM); PAg, Ag not defined
T5 construct: expressed in transfected cells
Method: as §1, §2, §3, §4, §5

[6] = target: T6, human prostanoid EP4 receptor (Homo sapiens, UniProt P35408); test: FLIPR Ca2+ signaling antagonist assay, EP4 receptor stable cell line; conditions: HEK-293 EBNA stable cell line; standard agonist PGE2; NA = inactive (no antagonism or Kb 10,000 nM); PAg, Ag not defined
T6 construct: expressed in transfected cells
Method: as §1, §2, §3, §4, §5

[7] = target: T7, human prostanoid IP receptor (Homo sapiens, UniProt P43119); test: FLIPR Ca2+ signaling antagonist assay, IP receptor stable cell line; conditions: HEK-293 EBNA stable cell line; standard agonist Cicaprost; NA = inactive (no antagonism or Kb 10,000 nM); PAg, Ag not defined
T7 construct: expressed in transfected cells
Method: as §1, §2, §3, §4, §5

T2 sequence (P43088 whole entry): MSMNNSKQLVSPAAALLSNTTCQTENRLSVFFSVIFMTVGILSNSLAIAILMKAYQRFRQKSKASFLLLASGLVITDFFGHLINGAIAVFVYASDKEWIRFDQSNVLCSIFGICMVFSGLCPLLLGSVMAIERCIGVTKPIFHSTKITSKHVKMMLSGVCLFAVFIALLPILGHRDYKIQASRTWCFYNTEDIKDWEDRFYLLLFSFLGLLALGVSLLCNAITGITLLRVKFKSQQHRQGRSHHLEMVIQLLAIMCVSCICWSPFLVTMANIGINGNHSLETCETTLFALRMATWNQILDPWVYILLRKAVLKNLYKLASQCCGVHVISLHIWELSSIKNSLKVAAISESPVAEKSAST
T7 sequence (P43119 whole entry): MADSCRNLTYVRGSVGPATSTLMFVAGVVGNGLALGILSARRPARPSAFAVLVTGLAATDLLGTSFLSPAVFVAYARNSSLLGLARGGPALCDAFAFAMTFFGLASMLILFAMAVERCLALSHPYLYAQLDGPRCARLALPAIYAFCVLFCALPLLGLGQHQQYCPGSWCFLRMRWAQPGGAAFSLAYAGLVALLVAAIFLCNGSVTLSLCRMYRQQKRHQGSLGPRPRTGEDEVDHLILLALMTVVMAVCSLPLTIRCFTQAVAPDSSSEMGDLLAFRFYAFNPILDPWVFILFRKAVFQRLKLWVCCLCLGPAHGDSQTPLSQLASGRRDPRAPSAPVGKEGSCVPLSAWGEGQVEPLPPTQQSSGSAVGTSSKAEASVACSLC
T6 sequence (P35408 whole entry): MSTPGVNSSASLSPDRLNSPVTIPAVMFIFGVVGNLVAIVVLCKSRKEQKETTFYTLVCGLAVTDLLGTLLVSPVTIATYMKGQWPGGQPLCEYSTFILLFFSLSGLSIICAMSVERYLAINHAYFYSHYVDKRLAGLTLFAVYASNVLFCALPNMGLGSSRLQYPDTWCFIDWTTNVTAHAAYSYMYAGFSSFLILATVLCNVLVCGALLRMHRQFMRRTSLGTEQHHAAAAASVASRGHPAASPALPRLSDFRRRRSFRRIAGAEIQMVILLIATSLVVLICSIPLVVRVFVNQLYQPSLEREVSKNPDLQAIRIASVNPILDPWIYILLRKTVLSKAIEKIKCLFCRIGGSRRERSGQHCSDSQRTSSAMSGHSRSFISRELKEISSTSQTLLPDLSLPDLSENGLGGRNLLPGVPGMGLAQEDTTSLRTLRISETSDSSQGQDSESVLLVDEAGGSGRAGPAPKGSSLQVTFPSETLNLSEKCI
T5 sequence (P43116 whole entry): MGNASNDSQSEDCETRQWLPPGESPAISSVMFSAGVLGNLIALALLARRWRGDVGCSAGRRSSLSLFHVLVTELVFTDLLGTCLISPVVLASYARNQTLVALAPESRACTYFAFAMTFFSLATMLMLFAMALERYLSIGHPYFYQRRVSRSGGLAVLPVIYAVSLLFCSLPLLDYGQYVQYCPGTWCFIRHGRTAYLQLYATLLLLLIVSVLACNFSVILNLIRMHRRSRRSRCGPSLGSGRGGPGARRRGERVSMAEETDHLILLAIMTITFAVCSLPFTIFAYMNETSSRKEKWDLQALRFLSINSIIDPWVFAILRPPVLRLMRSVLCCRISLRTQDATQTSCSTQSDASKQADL

Compound | Kb [1] | Kb [2] | Kb [3] | Kb [4] | Kb [5] | Kb [6] | TP (FLIPR) Kb [1] | IP (FLIPR) Kb [7] | Kb [7] | DP1 (FLIPR) Kb [3]
Cc1cc(CCC(=O)O)nn1Cc1cc(Br)ccc1OCC(C)C [Example 16, 3-[1-(5-Bromo-2-isobutoxybenzyl)-5-methyl-1H-pyrazol-3-yl]-propionic acid] | 14 nM | 70 nM | 200 nM | 14 nM | 2700 nM | 1000 nM | – | – | – | –
Cc1cc(CCC(=O)O)nn1Cc1cc(Cl)ccc1OCc1ccc(Cl)cc1C(F)(F)F [Example 29, 3-[1-(5-Chloro-2-(4-chloro-2-trifluoromethylbenzyloxy)benzyl)-5-methyl-1H-pyrazol-3-yl]-propionic acid] | – | 5900 nM | 790 nM | 70 nM | 9800 nM | – | Ag | PAg | – | –
Cc1cc(CCC(=O)O)nn1Cc1cc(Cl)ccc1OCC(C)C [Example 42, 3-[1-(5-Chloro-2-(2-methylpropyloxy)benzyl)-5-methyl-1H-pyrazol-3-yl]-propionic acid] | 40 nM | 180 nM | 260 nM | 30 nM | 2500 nM | 1600 nM | – | – | – | –
CCC(CC)COc1ccc(Br)cc1Cn1ccc(CCC(=O)O)n1 [Example 59, 3-{1-[5-Bromo-2-(2-ethyl-butoxy)-benzyl]-1H-pyrazol-3-yl}-propionic acid] | 1 nM | 1200 nM | 300 nM | 160 nM | – | 100 nM | – | – | 2700 nM | –
CCC(CC)COc1ccc(C#N)cc1Cn1nc(CCC(=O)O)cc1C [Example 60, 3-{1-[5-Cyano-2-(2-ethyl-butoxy)-benzyl]-5-methyl-1H-pyrazol-3-yl}-propionic acid] | 120 nM | 1400 nM | 4400 nM | 2100 nM | – | 2400 nM | – | – | 5400 nM | –
CCC(CC)COc1ccc(-c2ccccc2)cc1Cn1nc(CCC(=O)O)cc1C [Example 63, 3-{1-[4-(2-Ethyl-butoxy)-biphenyl-3-ylmethyl]-5-methyl-1H-pyrazol-3-yl}-propionic acid] | – | 60 nM | 170 nM | 700 nM | – | 4000 nM | PAg | – | 2200 nM | –
C#Cc1ccc(OCC(CC)CC)c(Cn2nc(CCC(=O)O)cc2C)c1 [Example 64, 3-{1-[5-Ethynyl-2-(2-ethyl-butoxy)-benzyl]-5-methyl-1H-pyrazol-3-yl}-propionic acid] | 9 nM | 50 nM | 800 nM | 270 nM | – | 500 nM | – | – | 2000 nM | –
CCC(CC)COc1ccc(C)cc1Cn1nc(CCC(=O)O)cc1C [Example 65, 3-{1-[2-(2-Ethyl-butoxy)-5-methyl-benzyl]-5-methyl-1H-pyrazol-3-yl}-propionic acid] | 10 nM | 1300 nM | 550 nM | 150 nM | – | 100 nM | – | – | 2300 nM | –
CCc1ccc(OCC(CC)CC)c(Cn2nc(CCC(=O)O)cc2C)c1 [Example 66, 3-{1-[5-Ethyl-2-(2-ethyl-butoxy)-benzyl]-5-methyl-1H-pyrazol-3-yl}-propionic acid] | 8 nM | 500 nM | 260 nM | 100 nM | – | 900 nM | – | – | 1500 nM | –
CCC(CC)COc1ccc(Br)cc1Cn1nc(CC(C)C(=O)O)cc1C (stereo not drawn) [Example 67, 3-{1-[5-Bromo-2-(2-ethyl-butoxy)-benzyl]-5-methyl-1H-pyrazol-3-yl}-2-methyl-propionic acid] | 20 nM | 140 nM | 400 nM | 10 nM | – | 70 nM | – | – | 1500 nM | –
Cc1cc(CC(C)(C)C(=O)O)nn1Cc1cc(Cl)ccc1OCC1CCCC1 [Example 72, 3-{1-[5-Chloro-2-(2-cyclopentylmethoxy)-benzyl]-5-methyl-1H-pyrazol-3-yl}-2,2-dimethyl-propionic acid] | 40 nM | 450 nM | 560 nM | 70 nM | – | 180 nM | – | – | 1700 nM | –
Cc1cc(CCC(=O)O)nn1Cc1cc(Cl)ccc1CCC1CCCC1 [Example 74] | 190 nM | 3500 nM | 600 nM | 1300 nM | – | 3300 nM | – | – | 2200 nM | –
Cc1cc(CCC(=O)O)nn1Cc1cc(Cl)ccc1C#CCC(C)C [Example 76, 3-{1-[5-Chloro-2-(4-methylpentynyl)-benzyl]-5-methyl-1H-pyrazol-3-yl}-propionic acid] | 7 nM | 160 nM | – | 200 nM | – | 1200 nM | – | – | 4500 nM | PAg

Source: patent US9394284B2, “Compounds act at multiple prostaglandin receptors giving a general anti-inflammatory response” (Allergan, Inc., priority 2010, dated 2016)
